Source: patent US20250170098A1, “MOLECULAR JACKHAMMER FOR MECHANICAL DESTRUCTION OF CELLULAR STRUCTURE” (William Marsh Rice University, priority 2022, published 2025)

Columns and labels:
[1] = system: human melanoma A375 cells; assay: Cell permeabilization to DAPI, flow cytometry analysis; type: cell-based; details: for permeabilization of the cells to DAPI: 730 nm light at 80 mW/cm^2 for 10 min; for IC50: Homo sapiens, A-375, 10 min, 730 nm LED light at 80 mW/cm^2 for 10 min, DAPI positive cells, read-out: VDA IC50 (effective concentration needed to permeabilize cells by 50%)
Procedure: The activity of plasmon-driven MJHs to open cell membranes by VDA upon NIR light-activation was evaluated in human melanoma A375 cells. When the cell membranes were open by VDA, DAPI enters immediately into the cells and stain the nucleus, and flow cytometry analysis was used to quantify the percentage of DAPI positive cells at variable concentrations of MJH. The flow cytometry analysis is conducted immediately after the cells were treated with 730 nm LED light at 80 mW/cm^2 for 10 min. Typically, it took ˜30 s to start cell counting and observe that DAPI already had entered into the cell membrane-compromised cells but not in the controls without VDA action. This is indicative of a rapid necrotic cell death and cell membrane permeabilization to DAPI by VDA action. The effective concentration needed to permeabilize cells by 50% (VDA IC50) was estimated for each molecule.
The flow cytometry data was analyzed using FlowJo software version 10.5.3. Then, a wide polygonal gate was drawn as shown in FIG. 33A since we were interested in detecting any cell death after treatment, we were not only interested in measuring healthy cell populations. Sometimes, we observed that the death cell population upon treatment shifted outside the gate if a narrow gate was used. Then, the singlets were selected and the DAPI fluorescence intensity was plotted versus the SSC-A and the gate for DAPI positive cells was drawn as shown in FIG. 33C and the analysis was applied to all samples in the group. In FIG. 33D, a DAPI positive population is observed in the same analysis group. This analysis was applied to calculate the percentage of DAPI positive cells.
Cell Permeabilization and flow cytometry analysis. A375 cells were cultured as described before. One day before the treatment, cells were inoculated at 5 million cells per dish (10 cm polystyrene tissue culture dish). The cells were harvested using 0.05% trypsin-EDTA (Gibco, 25-300-054), then the cells were counted and were adjusted to a cell density of 2×10^5 cells/mL in DMEM media with L-glutamine, 4.5 g/L glucose, and sodium pyruvate (Corning Inc. 10013CV) and supplemented with 10% FBS (Corning, 35010CV), 2×MEM vitamin solution (Gibco, 11120052), 1×MEM non-essential amino acid solution (Gibco, 11140050) and penicillin/streptomycin. 1 mL of this cell suspension containing 2×10^5 cells was used in each treatment. In a 1.5 mL Eppendorf tube, […] containing 2 mM Cy7.5-amine (or other cyanine molecule or other concentration) in DMSO (Fisher, 99.7%) was placed in the bottom of the tube, then 1 mL of the cell suspension was added into the tube to get final concentration of 2 μM of Cy7.5-amine containing 0.1% DMSO and 2×10^5 cells. The mixture was then incubated at 37° C. and 5% CO2 for 30 min. Then, 1 mM DAPI was added into the cell suspension. Then, the cells suspension was transferred to a […] tissue culture dish and immediately the cells were treated under the light beam of NIR light of 730 nm at 80 mW/cm^2 (or adjusted powers down to 20 mW/cm^2) for 10 min (or adjusted illumination times down to 30 s) using LED light source (PRIZMATIX, UHP-F-730, Israel) which covered the entire dish. While the cells were treated, the dish was placed on top of an aluminum block painted black, so that the excess NR light and that was not reflected back into the cell suspension while the aluminum block actED as a heat-sink, maintaining a constant temperature in the dish during the irradiation. The instrument for flow cytometry analysis (SONY, MA900 Multi-Application Cell Sorter) was already set up and calibrated by the time the light treatment was finished. Therefore, as soon as the 10-min light treatment was completed, the cell suspension was rapidly transferred from the 35 mm dish to a flow cytometry tube and the cells were analyzed for DAPI permeabilization and Cy7.5-amine binding. It took ˜30 s to load the sample and to start the analysis. […]

[2] = system: A375 cells; assay: Clonogenic assay; type: cell-based, human; details: Homo sapiens, A-375, read-out: lethal concentration to kill the cell population by 50% (VDA IC50)
Procedure: The clonogenic assay was conducted to confirm that cancer cells treated by plasmon-driven MJH are indeed death upon NIR-light activation (FIG. 18). Three molecules were analyzed: the most VDA active BL-204, medium active BL-141-2 and low active Cy7-amine. […] This was accomplished by incubating the MJH molecules with the A375 cells for 50 min and immediately activate the plasmon-driven MJH using 730 nm NIR-light at 80 mW/cm^2 for 10 min. This is considered a short contact time between the MJH and the A375 cells.
Clonogenic assay. A375 cells were seeded in 35 mm cell culture dishes at predetermined densities to allow for an approximately equal number of resultant colonies. The next day, cells were treated with Cy7.5-amine at variable concentration and with or without 730 nm light at 80 mWcm^−2 for 10 min. The cells were incubated with Cy7.5-amine for 50 min before the illumination, the media was replaced with fresh media after the illumination and cells were cultured for 6 days to allow for colony formation. Cells were then washed once with PBS and fixed-stained in a 0.5% (w/v) crystal violet in methanol/water solution (1:1) during 10 min. The excess of crystal violet was washed off with water, the plates were dried at room temperature and then the colonies were counted using ImageJ software version 1.52a, and the survival fraction was determined. All treatments were in triplicate.

IC50 [1] [µM] | Compound | IC50 [2] [nM] | further results
> 8 | CC1(C)C(/C=C/C=C/C=C/C=C2\N(CCCCS(=O)(=O)O)c3ccc4ccccc4c3C2(C)C)=[N+](CCCCS(=O)(=O)[O-])c2ccc3ccccc3c21 [ICG, indocynine green] | – | permeabilization of the cells to DAPI ([1]; 32 μM): 2%; permeabilization of the cells to DAPI ([1]; 400 μM): 14%
– | CN(C)CCCCCC[N+]1=C(/C=C/C2=CC(=C/C=C3/N(C)c4ccc5ccccc5c4C3(C)C)/CCC2)C(C)(C)c2c1ccc1ccccc21 [BL-141-2, 3-(6-(dimethylamino)hexyl)-1,1-dimethyl-2-((E)-2-((E)-3-((E)-2-(1,1,3-trimethyl-1,3-dihydro-2H-benzo[e]indol-2-ylidene)ethylidene)cyclohex-1-en-1-yl)vinyl)-1H-benzo[e]indol-3-ium] | 65 | –
> 8 | CN1/C(=C/C=C2C=C(/C=C/c3ccc4ccccc4[n+]3C)CCC/2)C=Cc2ccccc21 [BL-206] | – | –
– | CN1/C(=C\C=C2C=C(/C=C/C3=[N+](CCCCCC(=O)NCCCCCCN)c4ccccc4C3(C)C)CCC\2)C(C)(C)c2ccccc21 [Cy7-amine] | 175 | permeabilization to DAPI staining, percentage of cells ([1]; 1 μM, 730 nm LED at 80 mW/cm^2 for 10 min): 0.8%; effect of 680 nm excitation on opening cell membranes ([1]; 680 nm LED, 80 mWcm^−2 for 10 min): improves the MJH effect for opening cell membranes

Compound | IC50 [1] [µM] | IC50 [2] [nM] | further results
CN(C)CC[N+]1=C(/C=C/C2=CC(=C/C=C3/N(C)c4ccc5ccccc5c4C3(C)C)/CCC2)C(C)(C)c2c1ccc1ccccc21 [BL-204, 3-(2-(dimethylamino)ethyl)-1,1-dimethyl-2-((E)-2-((E)-3-((E)-2-(1,1,3-trimethyl-1,3-dihydro-2H-benzo[e]indol-2-ylidene)ethylidene)cyclohex-1-en-1-yl)vinyl)-1H-benzo[e]indol-3-ium] | 0.12 | 45 | –
